According to PMC9541279 (The Plant Journal, 2022):

Target: T1, DkSCPL1 and DkSCPL2 co-expressed (Diospyros kaki, UniProt C6L1N2)
T1 sequence (C6L1N2 36-491): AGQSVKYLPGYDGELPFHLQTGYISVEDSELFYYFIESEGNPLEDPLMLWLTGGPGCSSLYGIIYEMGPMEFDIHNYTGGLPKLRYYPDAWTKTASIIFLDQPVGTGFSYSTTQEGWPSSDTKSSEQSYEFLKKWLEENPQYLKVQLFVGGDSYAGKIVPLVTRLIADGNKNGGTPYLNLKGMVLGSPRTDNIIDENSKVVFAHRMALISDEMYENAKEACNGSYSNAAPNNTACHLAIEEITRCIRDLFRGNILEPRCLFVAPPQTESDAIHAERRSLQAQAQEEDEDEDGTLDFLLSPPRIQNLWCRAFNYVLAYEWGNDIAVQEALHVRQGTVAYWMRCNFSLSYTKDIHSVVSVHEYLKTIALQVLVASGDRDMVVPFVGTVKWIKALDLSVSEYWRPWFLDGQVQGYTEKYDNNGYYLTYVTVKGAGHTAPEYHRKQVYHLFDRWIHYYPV
T1 sequence (A4PB66 1-452 partner): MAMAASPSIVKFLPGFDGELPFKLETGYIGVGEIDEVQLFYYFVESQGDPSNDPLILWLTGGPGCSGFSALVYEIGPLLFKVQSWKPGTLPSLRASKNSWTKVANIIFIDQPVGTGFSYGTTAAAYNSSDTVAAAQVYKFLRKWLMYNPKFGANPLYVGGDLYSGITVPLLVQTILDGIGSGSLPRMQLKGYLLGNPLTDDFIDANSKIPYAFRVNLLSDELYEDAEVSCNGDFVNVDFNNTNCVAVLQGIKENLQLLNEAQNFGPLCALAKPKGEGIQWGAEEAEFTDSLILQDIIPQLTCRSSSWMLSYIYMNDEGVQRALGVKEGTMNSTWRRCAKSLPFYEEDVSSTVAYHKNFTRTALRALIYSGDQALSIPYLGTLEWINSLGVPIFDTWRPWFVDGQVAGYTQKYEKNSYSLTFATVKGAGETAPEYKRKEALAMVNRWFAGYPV
Experiment: EGCG formation, UPLC-MS/MS, crude extract of N. benthamiana leaves
Format: biochemical
Conditions: 50 mM phosphate pH 6.0, 30 °C

Row | Compound | EGCG formation, UPLC-MS/MS, crude extract of N. benthamiana leaves (acyl donor βG) | EGCG formation, UPLC-MS/MS, crude extract of N. benthamiana leaves (acyl acceptor EGC)
1 | Oc1cc(O)c2c(c1)O[C@H](c1cc(O)c(O)c(O)c1)[C@H](O)C2 [EGC] | the two paralogs when co‐expressed catalyzed the formation of EGCG | –
2 | O=C(O[C@@H]1O[C@H](CO)[C@@H](O)[C@H](O)[C@H]1O)c1cc(O)c(O)c(O)c1 [βG] | – | the two paralogs when co‐expressed catalyzed the formation of EGCG
